# Assays:
# [1] = test system: human colorectal cancer cell line HCT-116; assay: Apoptotic assay (PE Annexin V, flow cytometry), HCT-116; assay type: cell-based; settings: for % Apoptosis: 50 hours
# Procedure: (§1) The human colorectal cell line HCT-116 was obtained from the American Type Culture Collection (Rockville, Md.). The butyrate resistant cell line was derived from HCT-116 by culturing the parental cells in increasing concentrations of butyrate as previously described in Bordonaro […]. The activation of beta-catenin by Wnt signaling mediates the effects of histone deacetylase inhibitors. Exp Cell Res. 2007; 313:1652-66 (including references therein). Colorectal cells were grown in alpha-MEM medium with 10% fetal bovine serum and antibiotics. The concentration of CAPE in the propolis-cyclodextrin complex CD1 was 1.79 μg/100 μg propolis solid encapsulated in the cyclodextrin, or 0.41 μg/100 μg cyclodextrin complex. Stock solutions were prepared in dimethyl sulfoxide, except for butyrate, which was dissolved in water at 1 M concentration. […] All cells (floating and attached) were harvested and stained for apoptotic and necrotic markers using a PE Annexin V Apoptosis Detection Kit I (BD Biosciences, #559763). Flow cytometry analyses were carried out with FACS Aria II and DiVa software. […] All data are presented as mean±standard deviation from at least three sets of independent experiments. Student T-test analysis was used to determine the significance of statistical differences. Differences were considered significant at P<0.05.
# [2] = test system: HCT-116-R cells (butyrate resistant, derived from HCT-116); assay: Apoptotic assay (PE Annexin V, flow cytometry), butyrate-resistant HCT-116-R; assay type: cell-based, human; settings: for % Apoptosis: HCT-116-R, 50 hours
# Procedure: as §1
# [3] = test system: human colorectal adenocarcinoma cells (DLD-1); assay: MTT proliferation assay, DLD-1 cells (Examples 2 and 3); assay type: cell-based
# Procedure: Test samples shown below in Table 3 were assessed for their ability to modulate the viability and proliferation of human colorectal adenocarcinoma cells (DLD-1) as assessed by the MTT assay. A positive control, 5-Fluorouracil (5-FU) was included in addition to an unsupplemented cell control (negative control) in the study. All samples were normalized to 200 μg/ml total solids.
# Thus, DLD-1 colon cancer cells were exposed to: • a tincture originally containing 25% solids by mass propolis which then diluted in the test solution to give 200 μg/ml total solids. The tincture was used to manufacture the cyclodextrin-encapsulated propolis samples. • Cyclodextrin propolis (γ-cyclodextrin encapsulated with 25% propolis tincture), CD1 from Table 2 in Example 1 • Cyclodextrin propolis+CAPE (γ-cyclodextrin encapsulated 25% propolis tincture with added CAPE to double the concentration of CAPE relative to the tincture), CD2 from Table 2 in Example 1 • γ-cyclodextrin alone (CAVAMAX W8 food gamma cyclodextrin) • 5-flurorouracil at 7.50 ng/ml as a positive control
# All cyclodextrin-encapsulated samples and γ-cyclodextrin alone were assayed on a per weight of sample, and so contain at most 50 μg/ml total solids as propolis.
# Human colorectal adenocarcinoma epithelial cell lines were revived from cryostorage and cultured in the presence of the test and reference samples. The culture conditions for the cells were those described by the supplier of the cells (ATCC). An MTT assay was then performed on the cultures to determine the effect of the samples on the cell proliferation.
# • 1. The human colorectal adenocarcinoma cells (DLD-1) obtained from the American Type Culture Collection USA were revived from cryostorage. • 2. Following initial propagation using the media described above (see Medium Preparation), the culture was subcultured using the trypsin-EDTA as follows. The media was removed and 5 ml of the trypsin-EDTA solution added and incubated at 37° C. for 5 min or until all the cells had detached. The trypsin was neutralised by adding an equal volume of DMEM medium and the culture centrifuged at 300 g (1200 rpm) for 5 min at 4° C. • 3. The supernatant was decanted and the cell pellets resuspended in medium DMEM, FBS (10%), penicillin (100 units/ml), streptomycin (100 μg/ml). The cells were cultured at 37° C. in 5% CO2/95% air. • 4. After reaching confluence, the cells were detached using trypsin-EDTA and centrifuged as described in 2 above. • 5. The supernatants were discarded and the cells resuspended in DMEM and supplements as described in 3 above at 7.5×10^4 cells per ml. A total volume of 23 mls of the cell suspension was required. • 6. Into each well of three 96 well plates, 180 μl of the cells ([…]) or medium was added as indicated in the plate layout below. The plates were incubated at 5% CO2/95% air at 37° C. for 8 h which was sufficient to allow the cells to strongly adhere. • 7. To each well, 20 μl of each of the test samples or positive control was added as indicated in the diagrams above. To the wells labelled ‘medium’ or ‘cells only’, 20 μl of 15% ETOH/HBSS was added. Each sample was assessed in replicates of 6, while the controls on all three plates were assessed in replicates of 9 (combined triplicates) • 8. The total volume in each well was 200 μl. • 9. The plates were incubated at 37° C. in 5% CO2/95% air for 19 h.
# • 1. On completion of the incubation, 20 μl of MTT working solution (5 mg/ml) was added to all wells and incubated for 2 hr at 37° C. in 5% CO2/95% air. • 2. 100 μl of MTT lysis buffer was then added and the plates incubated for 3 hr at 37° C. on a shaker in 5% CO2/95% air, followed by pipetting to break up and dissolve the crystals until fully solubilized. The plates were centrifuged at 1200 rpm for 10 minutes to pelletize any remaining insoluble material. From each well 200 μl aliquots were transferred to fresh 96 well plates. The plates were read by a VersaMax microplate reader at 570 nm. • 3. […]
# [4] = test system: human oesophageal squamous cell carcinoma cell line (KYSE-30); assay: Gastro-intestinal cancer anti-proliferative MTT assay, KYSE-30 (Examples 5-9); assay type: cell-based; settings: Example 9
# Procedure: Sample CD5 γ-cyclodextrin as prepared in Example 1 was assessed for its ability to modulate the viability and proliferation of human colorectal adenocarcinoma cells (DLD-1); human colon cancer cell line (HCT-116); human gastric carcinoma cell line (NCI-N87); and human oesophageal squamous cell carcinoma cell line (KYSE-30) as assessed by the MTT assay. The positive control, 5-fluorouracil (5-FU) was included at three concentrations; in addition to an unsupplemented cell control as a negative control in the study. [Do we include test compounds for comparison?.
# The four human gastrointestinal carcinoma cell lines were revived from cryostorage and cultured in the presence of the test and reference samples. An MTT assay was then performed on the cultures to determine the effect of the samples on the cell viability and proliferation.
# The test sample, and all other test samples in Examples 5-8 were dissolved in 15% ethanol/Hanks Balanced Salt Solution (ETOH)/HBSS to a concentration of 2 mg/mL solids. In the assay the final concentration of the samples was 200 μg/ml with a final EtOH concentration of 1.5%.
# • 1. Human colorectal adenocarcinoma cells (ATCC CCI-221, DLD-1)(ATCC, Bethesda, Md., USA) • 2. Human gastric carcinoma cells (ATCC CRL-5822, NCI-N87)(ATCC, Bethesda, Md., USA) • 3. Human oesophageal squamous cell carcinoma (ECACC, KYSE-30)(Sigma Aldrich, Auckland, NZ) • 4. Human colon carcinoma cells (ECACC HCT-116)(Sigma Aldrich, Auckland, NZ) • 5. Penicillin-streptomycin solution: 10000 units/ml penicillin, 10 mg/ml streptomycin in 0.9% NaCl (Sigma Cat #P-0781). Stored at −20° C. • 6. For DLD-1 cells: DMEM culture medium (Invitrogen Cat #12100-046). Stored at 4° C. • 7. For NCI-N87 cells: RPMI-1640 medium modified to contain 2 mM L-glutamine, 10 mM HEPES, 1 mM sodium pyruvate, 4500 mg/L glucose, and 1500 mg/L sodium bicarbonate (Sigma R6504). Stored at 4° C. • 8. For KYSE-410 cells: RPMI-1640 medium modified to contain 2 mM L-glutamine (Sigma R6504). Stored at 4° C. • 9. For HCT-116 cells: McCoy's 5A medium modified to contain 2 mM L-glutamine (Sigma M48792). Stored at 4° C. • 10. […]
smiles,measurement,setting,value
CCCC(=O)O [butyrate],% Apoptosis,"[1]; HCT-116, 5 mM",57.5%
same,apoptosis relative to cells only,"[1]; HCT-116, butyrate 5 mM",35%
same,% Apoptosis,[2]; 5 mM,11.2%
O=c1c(O)c(-c2ccccc2)oc2cc(O)cc(O)c12 [Galangin],Mean (OD 570 nm),"[3]; DLD-1, 200 μg/ml",0.1411
O=c1cc(-c2ccccc2)oc2cc(O)cc(O)c12 [Chrysin],Mean (OD 570 nm),"[3]; DLD-1, 200 μg/ml",0.1233
"O=C(/C=C/c1ccc(O)c(O)c1)OCCc1ccccc1 [CAPE, caffeic acid phenethyl ester]",% Apoptosis,"[1]; HCT-116, 1.2 ug/ml",18.3%
same,apoptosis relative to the negative control,"[1]; HCT-116, CAPE 1.2 ug/ml",no significant increase in apoptosis
same,Mean (OD 570 nm),"[3]; DLD-1, 200 μg/ml",0.0777
same,% Apoptosis,[2]; 1.2 ug/ml,9.7%
same,apoptosis relative to the negative control,"[2]; HCT-R, CAPE 1.2 ug/ml alone",did not undergo significant apoptosis
"OC[C@H]1O[C@@H]2O[C@H]3[C@H](O)[C@@H](O)[C@@H](O[C@H]4[C@H](O)[C@@H](O)[C@@H](O[C@H]5[C@H](O)[C@@H](O)[C@@H](O[C@H]6[C@H](O)[C@@H](O)[C@@H](O[C@H]7[C@H](O)[C@@H](O)[C@@H](O[C@H]8[C@H](O)[C@@H](O)[C@@H](O[C@H]9[C@H](O)[C@@H](O)[C@@H](O[C@H]1[C@H](O)[C@H]2O)O[C@@H]9CO)O[C@@H]8CO)O[C@@H]7CO)O[C@@H]6CO)O[C@@H]5CO)O[C@@H]4CO)O[C@@H]3CO [CAVAMAX W8 Food gamma Cyclodextrin, gamma-cyclodextrin]",inhibition at 200 µg/mL,"[4]; Homo sapiens, KYSE-30, KYSE-30, 200 μg/ml",8.8%
same,Mean (OD 570 nm),"[4]; KYSE-30, 200 μg/ml",0.3056
same,% inhibition,"[4]; KYSE-30, 200 μg/ml, listed as Gamma-CD",8.85%
same,% inhibition,"[3]; DLD-1, 200 μg/ml",9.11%
same,Mean (OD 570 nm),"[3]; DLD-1, 200 μg/ml",0.6405
same,inhibition at 200 µg/mL,"[3]; Homo sapiens, DLD-1, DLD-1, 200 μg/ml",9.1%

# — US20160051594A1, “Therapeutic Compositions and Uses Thereof” (MANUKA HEALTH NEW ZEALAND LIMITED, priority 2013, published 2016)
